# Measured values from patent US12306176B2, “Microfluidic bi-directional migration assay” (Ohio State Innovation Foundation, priority 2017, dated 2025).
# Tests used:
# MDA-MB-231 cells [1] = experiment: Microfluidic bi-directional migration (MBDM) assay, mean migration speed and persistence; type: cell-based, human
# Excerpt: To quantify the effects of iEF treatment on directed cell migration speed and persistence, a custom microfluidic bi-directional microtrack (MBDM) assay was developed that enables real-time monitoring with time-lapse microscopy of cell motility.
# In this study, the EF sensing mechanisms of breast cancer cells in response to asymmetric iEFs (<100 μV/cm) was investigated. Using a MBDM assay, changes in the speed and persistence of spontaneously migrating MDA-MB-231 breast cancer cells were observed. This cell type was selected for these studies because it is a putative metastatic breast cancer cell line that is also responsive to gradients of a chemoattractant such as EGF (Wang S J, et al. (2004) Exp Cell Res 300 (1):180-189; Wu A, et al. (2013) Proc Natl Acad Sci U S A 110(40):16103-16108). […] This configuration enables direct comparison of cell movement in response to iEFs applied primarily with the direction of cell migration (“parallel”) or against the direction of cell migration (“anti-parallel”) within the same microfluidic device. Here, the field direction is defined as the direction that has the higher peak magnitude, as well as higher time-average field strength.
# To calculate persistence, the following protocol was followed for each cell tracked in a microtrack of the MBDM assay. A cell starts at position Pt at time t. After a single time increment, dt, the cell moves to a new position, Pt+dt. The distance traveled during this time is the absolute difference in the two positions denoted as Li: Li=|Pt+dt−Pt|
# The total distance traveled is then the sum of all distances traveled during N time increments denoted as Lt. Additionally, the total time of travel is the number of time increments multiplied by the size of the time increments denoted as Tt.
# The displacement is simply the difference between the final and initial position: Ld=|PFinal−PInitial|
# The MBDM assay was designed to have three ports separated by 700 μm long arrays of parallel microtracks (FIG. 1D). The dimension of each port was 50 mm×15 mm. Cells were seeded in the center port and the top and bottom ports were designated as cell collection port and/or chemokine source reservoir port depending on the experimental condition. Microchannels were designed to have a square cross-section of 20 μm×20 μm. The cross-section dimensions were on the same order as the size of single cells and mimic the dimensions of pre-existing microtracks available to cells in-vivo (Kraning-Rush C M, et al. (2013) lntegr Biol (Camb). 5 (3):606-616). Moreover, these migratory tracks are representative of physiologically relevant matrix metalloproteinase independent cancer-cell migration mode during metastasis (Friedl P & Alexander S (2011) Cell 147 (5):992-1009; Wolf K, et al. (2009) Semin Cell Dev Biol. 20 (8):931-941; Friedl P & Wolf K (2003) Nat Rev Cancer. 3 (5):362; Wolf K, et al. (2007) Nat Cell Biol. 9 (8):893; Wolf K, et al. (2003) J Cell Biol. 160 (2):267-277). The bi-directional design of this assay allows cells to migrate in either direction from the seeding port and provides a better understanding and quantification of the directional bias of external cues such as chemokine gradients and the directional effects of applied iEFs. The large ports for cell seeding ensure uniform seeding density, excellent cell viability, and repeatability.
# Cells were washed in culture plates with 1×PBS solution, treated with 0.05% trypsin-EDTA solution (Sigma-Aldrich), and then counted using a hemocytometer. Cells (2×10^5) suspended in migration media were seeded in the middle port (seeding port) with an extremely small flow from the collection ports to the seeding port, which equilibrated in less than 15 minutes. The cells inside the devices were then incubated for 12 hours in migration media following which the media was aspirated and replaced with new media based on the experimental conditions. […]
# MDA-MB-231 cells [2] = experiment: F-actin polarization ratio in the MBDM assay; type: cell-based, human; conditions: EGF gradient, absence of iEFs (untreated 0.34)
# Procedure: This section reports on the effects of iEFs on the distribution of F-actin in cells migrating along the microtracks of the MBDM assay. To quantify the distribution of F-Actin, a quantity referred to herein as the polarization ratio (PR) was introduced, which has values between 0 and 1.
# Cells in the devices were fixed in 3.7 (wt/wt) paraformaldehyde solution for 30 minutes. They were subsequently washed with 1×PBS three times. For F-actin labeling, we blocked the cells for 60 minutes in blocking buffer (0.1% Triton-X and 5% donkey serum in 1×PBS). Cells were then treated with Alexa Fluoro® 488-conjugated or 555-conjugated phalloidin for 60 minutes (1:40, ThermoFisher), again followed by a 1×PBS wash (three times, 10 minutes each). […]
# Actin immunofluorescence images were acquired using a Nikon TE200 epifluorescence microscope (Nikon Instruments Inc.) under a 20× objective. The immunofluorescence images were quantified using custom MATLAB scripts. The custom MATLAB script calculated the geometric center for an individual cell, i.e. the arithmetic mean of the locations of all pixels comprising the cell area. Then the distance from this geometric center and angle (0°≤θ≤360°) of every pixel relative to a horizontal axis (θ=0°) was calculated. […] A moment of intensity is calculated for individual pixels and this value is summed for all the pixels in every individual sector. […]
substance,measurement,setting,value
epidermal growth factor [EGF],mean migration speed,"MDA-MB-231 cells [1]; EGF gradient (25 ng/mL) alone, no iEF, no inhibitor",0.43 μm/min
same,average persistence,MDA-MB-231 cells [1]; stable EGF gradient alone,0.84
same,increase of persistence compared to untreated control,MDA-MB-231 cells [1]; stable EGF gradient alone,6%
same,mean migration speed compared to untreated controls,MDA-MB-231 cells [1]; stable EGF gradient alone,increased significantly
same,center of the F-actin polarization ratio (PR) distribution,MDA-MB-231 cells [2],0.62
